Reference: ChEMBL document CHEMBL3045390, “Synthesis of 3-(5-bromo-2,3-dimethoxy-phenyl)-[1, 2, 4] oxadiazole analogues and their evaluation as anti-Parkinsons agents” (Med Chem Res, 2008)
Calls of active or inactive are those of the source. The calls are words filed in the database; no cut-off is given here.

test system: not listed separately; test: Lipophilicity, log P of the compound; assay type: physicochemical; settings: octanol/water

logP | SMILES
5.59 | COc1cc(Br)cc(-c2noc(C3CCN(Cc4ccccc4)CC3)n2)c1OC
4.21 | COc1cc(Br)cc(-c2noc(C3CCCCN3C)n2)c1OC (stereo not drawn)
5.81 | COc1cc(Br)cc(-c2noc(C3CCCN(Cc4ccccc4)C3)n2)c1OC (stereo not drawn)
5.81 | COc1cc(Br)cc(-c2noc(C3CCCCN3Cc3ccccc3)n2)c1OC (stereo not drawn)
4.08 | COc1cc(Br)cc(-c2noc(C3CCCN(C)C3)n2)c1OC (stereo not drawn)
3.79 | COc1cc(Br)cc(-c2noc(C3CCCN3C)n2)c1OC (stereo not drawn)

Continued, compound first:

SMILES | logP
COc1cc(Br)cc(-c2noc(C3CCN(C)CC3)n2)c1OC | 3.86
COc1cc(Br)cc(-c2noc(C3CCCN3Cc3ccccc3)n2)c1OC (stereo not drawn) | 5.52

test system: Rattus norvegicus; test: Antiparkinson's activity in Rattus norvegicus albino (rat) assessed as reduction of chlorpromazine-induced catatonia at 100 mg/kg, ip administered 30 min before chlorpromazine challenge measured up to 180 min; assay type: functional, organism-based; parameters: dose 100 mg/kg; settings: not given

SMILES | Activity
COc1cc(Br)cc(-c2noc(C3CCN(Cc4ccccc4)CC3)n2)c1OC | Active
COc1cc(Br)cc(-c2noc(C3CCN(C)CC3)n2)c1OC | Active
COc1cc(Br)cc(-c2noc(C3CCCCN3C)n2)c1OC (stereo not drawn) | Active
COc1cc(Br)cc(-c2noc(C3CCCN(Cc4ccccc4)C3)n2)c1OC (stereo not drawn) | Active
COc1cc(Br)cc(-c2noc(C3CCCCN3Cc3ccccc3)n2)c1OC (stereo not drawn) | Active
COc1cc(Br)cc(-c2noc(C3CCCN(C)C3)n2)c1OC (stereo not drawn) | Active
COc1cc(Br)cc(-c2noc(C3CCCN3Cc3ccccc3)n2)c1OC (stereo not drawn) | Active
COc1cc(Br)cc(-c2noc(C3CCCN3C)n2)c1OC (stereo not drawn) | Active

test system: Rattus norvegicus; test: Neurotoxicity inRattus norvegicus albino (rat) assessed as motor coordination at 10 mg/kg, ip after 30 min by […]; assay type: toxicity, organism-based; parameters: dose 10 mg/kg, route intraperitoneal; settings: in vivo, 0.5 h

SMILES | Activity
NCCc1ccc(O)c(O)c1 [DOPAMINE] | Non-toxic
N[C@@H](Cc1ccc(O)c(O)c1)C(=O)O [LEVODOPA] | Non-toxic

test system: Rattus norvegicus; test: Antiparkinson's activity in Rattus norvegicus albino (rat) assessed as reduction of chlorpromazine-induced catatonia at 10 mg/kg, ip administered 30 min before chlorpromazine challenge measured up to 180 min; assay type: functional, organism-based; parameters: dose 10 mg/kg; settings: not given

SMILES | Activity
NCCc1ccc(O)c(O)c1 [DOPAMINE] | inactive
N[C@@H](Cc1ccc(O)c(O)c1)C(=O)O [LEVODOPA] | inactive

test system: Rattus norvegicus; test: Neurotoxicity inRattus norvegicus albino (rat) assessed as motor coordination at 200 mg/kg, ip after 30 min by […]; assay type: toxicity, organism-based; parameters: dose 200 mg/kg, route intraperitoneal; settings: in vivo, 0.5 h

SMILES | Activity
COc1cc(Br)cc(-c2noc(C3CCN(Cc4ccccc4)CC3)n2)c1OC | Toxic
COc1cc(Br)cc(-c2noc(C3CCN(C)CC3)n2)c1OC | Non-toxic
COc1cc(Br)cc(-c2noc(C3CCCCN3C)n2)c1OC (stereo not drawn) | Non-toxic
COc1cc(Br)cc(-c2noc(C3CCCN(Cc4ccccc4)C3)n2)c1OC (stereo not drawn) | Toxic
COc1cc(Br)cc(-c2noc(C3CCCCN3Cc3ccccc3)n2)c1OC (stereo not drawn) | Toxic
COc1cc(Br)cc(-c2noc(C3CCCN(C)C3)n2)c1OC (stereo not drawn) | Non-toxic
COc1cc(Br)cc(-c2noc(C3CCCN3Cc3ccccc3)n2)c1OC (stereo not drawn) | Toxic
COc1cc(Br)cc(-c2noc(C3CCCN3C)n2)c1OC (stereo not drawn) | Non-toxic
